Publication PMC10108347, “Heterobifunctional Ligase Recruiters Enable pan-Degradation of Inhibitor of Apoptosis Proteins” (Journal of Medicinal Chemistry, 2023)
Where two headings read alike, the source gives them in different places.

Columns and labels:
[1] = Log D7.4 measurement by chromatographic (fast-gradient HPLC) method; details: for chromatographic logD: pH 7.4
Experimental: The system was calibrated by plotting the retention times of six different drugs (atenolol, metoprolol, labetalol, diltiazem, triphenylene, and permethrin) versus their literature-known log D7.4 in a calibration line (R^2 = 0.99). Subsequently, the mean retention times of the analytes were taken to calculate their log D7.4 values with the aid of the calibration line. At least two independent measurements of each analyte were performed.

[2] = target: XIAP (Homo sapiens, UniProt P98170); assay: Immunoblotting (western blot) quantification of XIAP levels in MM.1S cells; details: for remaining activity at 0.1 µM: MM1.S, 16 h
Sequence of XIAP (P98170 whole entry): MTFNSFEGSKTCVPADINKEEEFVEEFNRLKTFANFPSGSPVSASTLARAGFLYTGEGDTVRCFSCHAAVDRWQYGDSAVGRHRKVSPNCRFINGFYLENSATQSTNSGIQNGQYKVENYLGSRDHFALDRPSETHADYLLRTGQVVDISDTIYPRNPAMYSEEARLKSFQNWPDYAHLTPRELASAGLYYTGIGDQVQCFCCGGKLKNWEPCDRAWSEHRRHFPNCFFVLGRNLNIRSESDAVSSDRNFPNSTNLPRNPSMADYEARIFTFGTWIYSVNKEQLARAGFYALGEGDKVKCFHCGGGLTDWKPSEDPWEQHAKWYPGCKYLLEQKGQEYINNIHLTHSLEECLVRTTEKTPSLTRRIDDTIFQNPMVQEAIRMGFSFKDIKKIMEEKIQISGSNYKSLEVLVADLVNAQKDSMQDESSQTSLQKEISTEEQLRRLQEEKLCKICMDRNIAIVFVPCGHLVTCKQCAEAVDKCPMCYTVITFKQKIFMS
Experimental: (§1) To evaluate the capability of our panel of hetero-PROTACs for E3 ligase degradation, VHL19, VHL30, CRBN, cIAP1, cIAP2, and XIAP levels were quantified by western blot analyses. […] SDS-PAGE was performed, and proteins were then transferred onto PVDF membranes. Blotted membranes were blocked with 5% milk in Tris-buffered saline/Tween20 (TBST). Primary antibodies were diluted in 5% BSA in TBST, and incubations were performed overnight at 4 °C. Secondary HRP-conjugated antibodies diluted in 5% milk were incubated for 1 h at room temperature. Detection of proteins on PVDF was carried out using the WesternBright ECL HRP substrate or the WesternBright Sirius HRP substrate (Advansta, San Jose, USA) and imaged with LAS 4000× (Fujifilm). Membranes were subjected to 10 min incubation with Restore Western Blot Stripping Buffer (Thermo Fisher Scientific, Waltham, USA), followed by TBST washes. After brief re-activation with methanol, the membranes were blocked, and further probing of proteins was carried out.
(§2) Quantification of blots was performed using ImageJ software (National Institutes of Health).

[3] = target: CRBN (Homo sapiens, UniProt Q96SW2); assay: Immunoblotting (western blot) quantification of CRBN levels in MM.1S cells; details: for remaining activity at 0.1 µM: MM1.S, 16 h, read-out: %remaining protein CRBN
Sequence of CRBN (Q96SW2 whole entry): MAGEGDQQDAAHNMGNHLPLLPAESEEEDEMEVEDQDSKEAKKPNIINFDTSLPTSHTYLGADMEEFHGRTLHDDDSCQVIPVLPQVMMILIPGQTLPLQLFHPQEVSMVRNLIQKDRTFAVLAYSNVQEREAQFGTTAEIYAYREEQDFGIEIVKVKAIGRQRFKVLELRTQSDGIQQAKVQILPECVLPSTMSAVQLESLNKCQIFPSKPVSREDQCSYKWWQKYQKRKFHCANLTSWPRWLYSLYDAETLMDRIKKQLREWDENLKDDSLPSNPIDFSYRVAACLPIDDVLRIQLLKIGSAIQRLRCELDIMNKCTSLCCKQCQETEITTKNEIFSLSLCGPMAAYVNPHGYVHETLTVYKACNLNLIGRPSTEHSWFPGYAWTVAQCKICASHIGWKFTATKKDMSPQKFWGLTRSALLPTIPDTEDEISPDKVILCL
Experimental: as §1, §2

[4] = target: cIAP1 (Homo sapiens, UniProt Q13490); assay: Immunoblotting (western blot) quantification of cIAP1 levels in MM.1S cells; details: for remaining activity at 0.1 µM: MM1.S, 16 h
Sequence of cIAP1 (Q13490 whole entry): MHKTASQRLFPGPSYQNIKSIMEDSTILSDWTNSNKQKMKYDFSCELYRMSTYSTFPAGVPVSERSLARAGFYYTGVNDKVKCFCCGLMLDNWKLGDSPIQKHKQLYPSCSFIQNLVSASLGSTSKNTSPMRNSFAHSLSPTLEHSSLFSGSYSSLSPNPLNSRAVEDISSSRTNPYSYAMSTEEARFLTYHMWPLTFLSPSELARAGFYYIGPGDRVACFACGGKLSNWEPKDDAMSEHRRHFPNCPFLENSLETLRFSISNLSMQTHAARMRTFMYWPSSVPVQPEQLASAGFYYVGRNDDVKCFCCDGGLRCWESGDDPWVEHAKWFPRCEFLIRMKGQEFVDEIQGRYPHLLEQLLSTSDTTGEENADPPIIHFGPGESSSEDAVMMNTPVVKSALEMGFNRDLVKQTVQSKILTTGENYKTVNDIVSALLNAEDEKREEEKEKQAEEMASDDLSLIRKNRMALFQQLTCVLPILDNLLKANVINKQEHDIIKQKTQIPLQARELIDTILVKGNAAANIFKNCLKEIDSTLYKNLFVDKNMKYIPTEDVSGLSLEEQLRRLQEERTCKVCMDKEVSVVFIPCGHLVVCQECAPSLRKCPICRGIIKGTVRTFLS

[5] = target: cIAP2 (Homo sapiens, UniProt Q13489); assay: Immunoblotting (western blot) quantification of cIAP2 levels in MM.1S cells; details: for remaining activity at 0.1 µM: MM1.S
Sequence of cIAP2 (Q13489 whole entry): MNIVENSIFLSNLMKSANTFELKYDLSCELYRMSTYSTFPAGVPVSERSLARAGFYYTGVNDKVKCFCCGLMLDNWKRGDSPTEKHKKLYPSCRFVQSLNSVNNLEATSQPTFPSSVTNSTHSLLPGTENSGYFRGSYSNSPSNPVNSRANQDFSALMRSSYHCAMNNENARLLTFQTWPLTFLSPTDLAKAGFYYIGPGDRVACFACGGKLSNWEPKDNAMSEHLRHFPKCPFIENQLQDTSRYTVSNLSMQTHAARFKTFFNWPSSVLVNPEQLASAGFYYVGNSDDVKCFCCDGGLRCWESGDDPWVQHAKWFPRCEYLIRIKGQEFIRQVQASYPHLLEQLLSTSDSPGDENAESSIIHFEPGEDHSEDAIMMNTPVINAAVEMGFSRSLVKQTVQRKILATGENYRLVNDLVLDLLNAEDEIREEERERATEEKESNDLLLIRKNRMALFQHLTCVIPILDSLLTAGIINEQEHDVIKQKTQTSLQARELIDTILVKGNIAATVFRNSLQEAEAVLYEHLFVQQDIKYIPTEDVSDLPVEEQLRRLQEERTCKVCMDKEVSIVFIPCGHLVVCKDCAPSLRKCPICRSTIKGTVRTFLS

[6] = test system: IKZF3; assay: Immunoblotting (western blot) quantification of IKZF3 levels in MM.1S cells; details: for %remaining protein IKZF3: 16 h treatment at 0.1 μM, normalized to loading control and DMSO; for IKZF3 degradation (in words): 16 h, 1 μM
Experimental: as §1, §2

[7] = target: T1, plasma protein (HSA column) (Homo sapiens, UniProt P02768); assay: Plasma protein binding estimated by HPLC on a […] HSA column; assay type: in vitro ADME; details: CHIRALPAK HSA column (50 × 3 mm, 5 μm), estimated by an HPLC-based method, read-out: PPB (plasma protein binding) (converted)
T1 construct: purchased
T1 sequence (P02768 25-609): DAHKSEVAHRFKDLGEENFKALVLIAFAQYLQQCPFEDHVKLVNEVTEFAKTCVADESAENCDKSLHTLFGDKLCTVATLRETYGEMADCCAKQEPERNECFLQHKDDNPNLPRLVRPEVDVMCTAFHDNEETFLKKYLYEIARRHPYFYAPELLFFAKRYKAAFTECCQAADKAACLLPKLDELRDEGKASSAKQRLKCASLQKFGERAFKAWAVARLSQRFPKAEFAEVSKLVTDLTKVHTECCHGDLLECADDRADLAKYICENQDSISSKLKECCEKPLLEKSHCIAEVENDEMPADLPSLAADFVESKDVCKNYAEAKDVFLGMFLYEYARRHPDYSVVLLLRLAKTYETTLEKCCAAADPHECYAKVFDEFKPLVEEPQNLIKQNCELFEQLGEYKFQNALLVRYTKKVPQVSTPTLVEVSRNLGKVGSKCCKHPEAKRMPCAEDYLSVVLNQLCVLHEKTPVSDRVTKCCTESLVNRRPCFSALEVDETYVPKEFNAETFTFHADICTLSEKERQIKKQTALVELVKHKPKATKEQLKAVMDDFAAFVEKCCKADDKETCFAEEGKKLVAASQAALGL
Experimental: Plasma protein binding (% PPB) was estimated by correlating the logarithmic retention times of the analytes on a […] HSA 50 × 3 mm, 5 μm column with the literature-known % PPB values (converted into log K values) of the following drugs: warfarin, ketoprofen, budesonide, nizatidine, indomethacin, acetylsalicylic acid, carbamazepine, piroxicam, nicardipine, and cimetidine (for details, see Valko et al.).[67] The samples were dissolved in MeCN/DMSO 9:1 to achieve a final concentration of 0.5 mg/mL. Mobile phase A was 50 mM ammonium acetate adjusted to pH 7.4 with ammonia solution, while mobile phase B was iPrOH. The flow rate was set to 1.0 mL/min, the UV detector was set to 254 nm, and the column temperature was kept at 30 °C. After injecting 2 μL of the sample, a linear gradient from 100% A to 30% iPrOH in 5.4 min was applied. From 5.4 to 18 min, 30% iPrOH was kept, followed by switching back to 100% A in 1.0 min and a re-equilibration time of 6 min. With the aid of the calibration line (R^2 = 0.96), the log K values of new substances were calculated and converted to their % PPB values.

[8] = test system: IAPs (cIAP1, cIAP2, XIAP); assay: Immunoblotting of IAPs in MM.1S cells, overall degradation profile, time course and washout; assay type: cell-based; details: 16 h, western blot, concentration (10 nM to 1 μM)
Experimental: Next, we examined the persistence of IAP degradation in MM.1S cells after a single exposure to 1 μM of 9 and subsequent removal of the compound. […] The reliance on CRL2^VHL was assessed with a neddylation inhibitor MLN4924, which blocks the activity of CRLs (Figure S13A).

[9] = target: VHL30 (Homo sapiens, UniProt P40337); assay: Immunoblotting (western blot) quantification of VHL30 levels in MM.1S cells; details: MM1.S, 16 h, read-out: %remaining protein VHL30
Sequence of VHL30 (P40337 whole entry): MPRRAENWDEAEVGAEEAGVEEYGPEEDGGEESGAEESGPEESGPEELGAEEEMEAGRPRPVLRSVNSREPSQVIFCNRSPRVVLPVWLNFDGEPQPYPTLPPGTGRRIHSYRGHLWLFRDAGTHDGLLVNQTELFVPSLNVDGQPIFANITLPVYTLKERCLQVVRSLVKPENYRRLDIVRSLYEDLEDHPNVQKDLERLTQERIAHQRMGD

[10] = MM.1S cells, 16 h treatment at 0.1 μM, normalized to loading control and DMSO
[11] = read-out: %remaining protein XIAP, MM.1S cells, 16 h treatment at 0.1 μM, normalized to loading control and DMSO
[12] = read-out: %remaining protein cIAP1, MM.1S cells, 16 h treatment at 0.1 μM, normalized to loading control and DMSO
[13] = 16 h, read-out: %remaining protein cIAP2, MM.1S cells, 16 h treatment at 0.1 μM, normalized to loading control and DMSO
[14] = read-out: %remaining protein XIAP
[15] = read-out: %remaining protein cIAP1
[16] = 16 h, read-out: %remaining protein cIAP2

| Compound | fraction unbound at 0.5 mg/mL [7] | chromatographic logD [1] | remaining activity at 0.1 µM [2, 11] | remaining activity at 0.1 µM [3] | remaining activity at 0.1 µM [4, 12] | remaining activity at 0.1 µM [5, 13] | %remaining protein IKZF3 [6] | IAP degradation profile (in words) [8] | also measured |
| --- | --- | --- | --- | --- | --- | --- | --- | --- | --- |
| (2S,4S)-1-((S)-2-Cyclohexyl-2-((S)-2-(methylamino)propanamido)acetyl)-4-(3-((8-((2-(2,6-dioxopiperidin-3-yl)-1,3-dioxoisoindolin-4-yl)amino)octyl)oxy)phenoxy)-N-((R)-1,2,3,4-tetrahydronaphthalen-1-yl)pyrrolidine-2-carboxamide [PROTAC 21] | – | – | – | – | – | – | 95% | – | logD (experimental partition coefficient, elog D7.4) ([1]; pH 7.4, fast-gradient HPLC method): 5.7; %remaining protein XIAP [2, 10]: 4%; %remaining protein CRBN [3, 10]: 90%; %remaining protein cIAP1 [4, 10]: 5%; %remaining protein cIAP2 [5, 10]: 14% |
| CN[C@@H](C)C(=O)N[C@H](C(=O)N1C[C@@H](Oc2cccc(OCCOCCOCCOc3cc(-c4scnc4C)ccc3CNC(=O)[C@@H]3C[C@@H](O)CN3C(=O)[C@H](C(C)C)N3Cc4ccccc4C3=O)c2)C[C@H]1C(=O)N[C@@H]1CCCc2ccccc21)C1CCCCC1 [PROTAC 15, (2S,4S)-1-((S)-2-Cyclohexyl-2-((S)-2-(methylamino)propanamido)acetyl)-4-(3-(2-(2-(2-(2-(((2S,4R)-4-hydroxy-1-((S)-3-methyl-2-(1-oxoisoindolin-2-yl)butanoyl)pyrrolidine-2-carboxamido)methyl)-5-(4-methylthiazol-5-yl)phenoxy)ethoxy)ethoxy)ethoxy)phenoxy)-N-((R)-1,2,3,4-tetrahydronaphthalen-1-yl)pyrrolidine-2-carboxamide] | 0.05 | 3.4 | – | – | – | – | – | – | remaining activity at 0.1 µM [2, 14]: 3%; remaining activity at 0.1 µM [4, 15]: 3%; remaining activity at 0.1 µM [5, 16]: 32%; remaining activity at 0.1 µM [9]: 51% |
| CN[C@@H](C)C(=O)N[C@H](C(=O)N1C[C@@H](Oc2cccc(OCCCCCOCCCCCOCCCCCCNc3cccc4c3C(=O)N(C3CCC(=O)NC3=O)C4=O)c2)C[C@H]1C(=O)N[C@@H]1CCCc2ccccc21)C1CCCCC1 (stereo partly drawn) [PROTAC 26, (2S,4S)-1-((S)-2-Cyclohexyl-2-((S)-2-(methylamino)propanamido)acetyl)-4-(3-((5-((5-((6-((2-(2,6-dioxopiperidin-3-yl)-1,3-dioxoisoindolin-4-yl)amino)hexyl)oxy)pentyl)oxy)pentyl)oxy)phenoxy)-N-((R)-1,2,3,4-tetrahydronaphthalen-1-yl)pyrrolidine-2-carboxamide] | – | 6.5 | – | 95% | – | – | 90% | pronounced pan-IAP depletion | remaining activity at 0.1 µM [2, 14]: 2%; remaining activity at 0.1 µM [4, 15]: 10%; remaining activity at 0.1 µM [5, 16]: 16%; IKZF3 degradation (in words) [6]: substantial IKZF3 degradation at 1 μM |
| CN[C@@H](C)C(=O)N[C@H](C(=O)N1C[C@@H](Oc2cccc(OCCCCOCCCCNc3cccc4c3C(=O)N(C3CCC(=O)NC3=O)C4=O)c2)C[C@H]1C(=O)N[C@@H]1CCCc2ccccc21)C1CCCCC1 (stereo partly drawn) [PROTAC 22, (2S,4S)-1-((S)-2-Cyclohexyl-2-((S)-2-(methylamino)propanamido)acetyl)-4-(3-(4-(4-((2-(2,6-dioxopiperidin-3-yl)-1,3-dioxoisoindolin-4-yl)amino)butoxy)butoxy)phenoxy)-N-((R)-1,2,3,4-tetrahydronaphthalen-1-yl)pyrrolidine-2-carboxamide] | 0.04 | 4.9 | 2% | 77% | 3% | 7% | 61% | pronounced pan-IAP depletion | IKZF3 degradation (in words) [6]: substantial IKZF3 degradation at 1 μM; IKZF3 degraded ([6]; 16 h treatment, 0.1 μM): approximately 40% |

The next lines start with results.

| fraction unbound at 0.5 mg/mL [7] | chromatographic logD [1] | remaining activity at 0.1 µM [2, 11] | remaining activity at 0.1 µM [3] | remaining activity at 0.1 µM [4, 12] | remaining activity at 0.1 µM [5, 13] | Compound | %remaining protein IKZF3 [6] | IAP degradation profile (in words) [8] | also measured |
| --- | --- | --- | --- | --- | --- | --- | --- | --- | --- |
| 0.06 | 3.9 | 2% | 86% | 4% | 8% | CN[C@@H](C)C(=O)N[C@H](C(=O)N1C[C@@H](Oc2cccc(OCCOCCOCCOCCNc3cccc4c3C(=O)N(C3CCC(=O)NC3=O)C4=O)c2)C[C@H]1C(=O)N[C@@H]1CCCc2ccccc21)C1CCCCC1 (stereo partly drawn) [PROTAC 24, (2S,4S)-1-((S)-2-Cyclohexyl-2-((S)-2-(methylamino)propanamido)acetyl)-4-(3-(2-(2-(2-(2-((2-(2,6-dioxopiperidin-3-yl)-1,3-dioxoisoindolin-4-yl)amino)ethoxy)ethoxy)ethoxy)ethoxy)phenoxy)-N-((R)-1,2,3,4-tetrahydronaphthalen-1-yl)pyrrolidine-2-carboxamide] | 95% | – | – |
| 0.05 | 3.9 | 3% | 85% | 4% | 11% | CN[C@@H](C)C(=O)N[C@H](C(=O)N1C[C@@H](Oc2cccc(OCCOCCOCCNc3cccc4c3C(=O)N(C3CCC(=O)NC3=O)C4=O)c2)C[C@H]1C(=O)N[C@@H]1CCCc2ccccc21)C1CCCCC1 (stereo partly drawn) [PROTAC 23, (2S,4S)-1-((S)-2-Cyclohexyl-2-((S)-2-(methylamino)propanamido)acetyl)-4-(3-(2-(2-(2-((2-(2,6-dioxopiperidin-3-yl)-1,3-dioxoisoindolin-4-yl)amino)ethoxy)ethoxy)ethoxy)phenoxy)-N-((R)-1,2,3,4-tetrahydronaphthalen-1-yl)pyrrolidine-2-carboxamide] | 95% | – | – |
| 0.04 | 4.6 | 8% | 95% | 6% | 34% | CN[C@@H](C)C(=O)N[C@H](C(=O)N1C[C@@H](Oc2cccc(OCCCCCNc3cccc4c3C(=O)N(C3CCC(=O)NC3=O)C4=O)c2)C[C@H]1C(=O)N[C@@H]1CCCc2ccccc21)C1CCCCC1 (stereo partly drawn) [PROTAC 20, (2S,4S)-1-((S)-2-Cyclohexyl-2-((S)-2-(methylamino)propanamido)acetyl)-4-(3-((5-((2-(2,6-dioxopiperidin-3-yl)-1,3-dioxoisoindolin-4-yl)amino)pentyl)oxy)phenoxy)-N-((R)-1,2,3,4-tetrahydronaphthalen-1-yl)pyrrolidine-2-carboxamide] | 89% | – | – |
| 0.05 | 3.4 | – | – | – | – | CC[C@H](NC(=O)[C@H](C)NC)C(=O)N1C[C@@H](O)C[C@H]1Cc1c(-c2[nH]c3cc(F)ccc3c2C[C@@H]2C[C@H](O)CN2C(=O)[C@H](CC)NC(=O)[C@H](C)NC)[nH]c2cc(F)ccc12 [birinapant, reference compound] | – | potent cIAP autodegradation | cIAP2 degradation (in words) ([5]; MM.1S cells, 16 h, western blot, 0.1 or 1 μM): substantial degradation |
